Patent US8268827B2, “Pyridazinone derivatives as PARP inhibitors” (Istituto di Ricerche di Biologia Molecolare P. Angeletti …, priority 2007, dated 2012)
pIC50: −log10 of the molar value. Counter-ions that a name gives are not always drawn.

Legend:
[1] = tested on: BRCA-1 silenced HeLa cells (HeLa shBRCA1-GFP); test: Proliferation assay in BRCA-1 silenced HeLa cells; assay type: cell-based; details: Homo sapiens; for inhibition at 5 µM: BRCA-1 silenced HeLa cells, read-out: % inh @ 5 uM (BRCA1-); for CC50: BRCA1 silenced HeLa cells, 168 hours, read-out: CC50 in the BRCA1 silenced HeLa cells
Method in brief: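 Antiproliferative effect was read by Celltiter Blue fluorescence after 168 h of compound treatment at 37° C., 5% CO2. Cells were matched HeLa pairs, BRCA1-shRNA (>80% silenced, GFP) versus non-shRNA vector control, in DMEM with 10% FCS.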

PARP-1 [2] = molecular target: T1, PARP-1 (Homo sapiens, UniProt P09874); test: PARP-1 TCA assay (inhibitory activity on human PARP-1); assay type: biochemical; details: human PARP-1, TCA assay
T1 construct: purchased Trevigen 4668-500-01
Description: Inhibitory Activity on Human PARP-1
The study was designed to determine the potency of compounds for inhibiting poly(ADP-ribosylation) by hPARP1 upon presentation of a nicked DNA (i.e. Activated Calf Thymus). The IC50 was determined in a TCA assay looking at the incorporation of [^3H]-NAD into the growing Poly-ADP-ribose (PAR) polymers and detection of the radioactivity incorporated in a polymer by scintillation counting.
A 96 wells polypropylene microplate was prepared with serial dilutions of compounds (10 point over a 0.1 nM-50 nM concentration range 5% DMSO, 5 uL) or 5% DMSO. The enzymatic reaction was conducted in the presence of 25 mM Tris-HCl pH8.0, 1 mM MgCl2, 50 mM KCl, 1 mM Spermine, 0.01% Nonidet P-40, 1 mM DTT, 1 ug/ml activated Calf Thymus DNA (Amersham Biosciences 27-4575) and 1 nM of human PARP-1 enzyme (Trevigen 4668-500-01). The reaction was initiated by adding 1 ug/ml Activated Calf Thymus DNA (Amersham Biosciences 27-4575), 0.4 ul (2.2×10^5DPM) of [^3H]-NAD (250uCi/ml, Perkin Elmer NET-443H) and 1.5 uM NAD (Sigma #N-1511) in a total reaction volume of 50 ul. After 2 hours incubation at room temperature, the reaction was stopped by the addition of TCA (50 uL, 20%) and NaPPi (20 mM) and incubated for 10 min over ice. The resulting precipitate was filtered on Unifilter GF/B microplate (Perkin Elmer) and washed four times with 2.5% TCA using Harvester Filtermate 196 (Perkin Elmer). After addition of 50 ul of Microscint 20 (Perkin Elmer) the amount of radioactivity incorporated into the PARP polymers was read for each well on Perkin Elmer Top Count. IC50 was calculated using 4P logistic fitting with ADA software based on the residual enzyme activity in the presence of increasing concentrations of compounds.

PARP-1 [3] = molecular target: T1, PARP-1; test: PARP-1 SPA assay; assay type: biochemical
Method in brief: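 PARP-1 reaction in Tris pH 8 buffer with MgCl2, spermine, KCl, activated calf thymus DNA and a mix of [3H]-NAD, NAD and biotinylated NAD, 2 h at RT. Stopped with EDTA/streptavidin SPA beads and poly(ADP-ribose) incorporation counted by scintillation.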

T1 sequence (P09874 whole entry): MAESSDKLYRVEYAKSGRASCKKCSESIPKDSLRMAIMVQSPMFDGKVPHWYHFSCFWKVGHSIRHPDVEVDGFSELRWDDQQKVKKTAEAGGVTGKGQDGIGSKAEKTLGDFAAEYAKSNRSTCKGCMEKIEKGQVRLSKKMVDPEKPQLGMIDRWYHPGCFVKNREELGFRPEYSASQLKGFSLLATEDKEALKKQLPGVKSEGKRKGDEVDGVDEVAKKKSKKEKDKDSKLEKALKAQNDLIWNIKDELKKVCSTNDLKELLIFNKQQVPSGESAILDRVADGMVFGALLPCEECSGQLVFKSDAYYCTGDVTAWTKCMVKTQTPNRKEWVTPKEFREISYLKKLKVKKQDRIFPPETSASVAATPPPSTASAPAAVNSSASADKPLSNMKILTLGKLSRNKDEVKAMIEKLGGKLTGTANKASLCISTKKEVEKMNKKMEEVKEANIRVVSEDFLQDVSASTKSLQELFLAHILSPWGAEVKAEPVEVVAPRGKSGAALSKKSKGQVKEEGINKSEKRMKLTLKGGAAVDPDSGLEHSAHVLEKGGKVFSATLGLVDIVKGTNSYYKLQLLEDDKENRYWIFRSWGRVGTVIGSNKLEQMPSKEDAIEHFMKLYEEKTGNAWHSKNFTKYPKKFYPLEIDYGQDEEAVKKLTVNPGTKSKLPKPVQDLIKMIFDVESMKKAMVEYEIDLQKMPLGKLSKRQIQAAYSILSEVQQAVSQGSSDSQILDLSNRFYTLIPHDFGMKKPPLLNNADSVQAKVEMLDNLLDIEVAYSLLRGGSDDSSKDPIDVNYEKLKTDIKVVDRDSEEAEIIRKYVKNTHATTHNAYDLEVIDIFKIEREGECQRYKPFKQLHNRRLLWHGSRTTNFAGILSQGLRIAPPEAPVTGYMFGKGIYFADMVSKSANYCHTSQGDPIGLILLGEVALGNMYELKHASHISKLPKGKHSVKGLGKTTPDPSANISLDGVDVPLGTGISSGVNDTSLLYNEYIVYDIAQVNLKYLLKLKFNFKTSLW

| pIC50 (PARP-1 [2]) | pIC50 (PARP-1 [3]) | SMILES | inhibition at 5 µM [1] | CC50 [1] |
| --- | --- | --- | --- | --- |
| – | 7.60 to 8.30 | Cc1c(Cc2ccc(F)c(C(=O)N3CCN(C4CCOCC4)C(=O)C3)c2)n[nH]c(=O)c1C(F)(F)F [Example 146, 3-(4-Fluoro-3-{[3-oxo-4-(tetrahydro-2H-pyran-4-yl)piperazin-1-yl]carbonyl}benzyl)-4-methyl-6-oxo-5-(trifluoromethyl)-1,6-dihydropyridazin-1-ium trifluoroacetate] | – | < 50 nM |
| – | 7.60 to 8.30 | CCN1C(=O)CN(C(=O)c2cc(Cc3n[nH]c(=O)c(C(F)(F)F)c3C)ccc2F)CC1C (stereo not drawn) [Example 147, 3-{3-[(4-Ethyl-3-methyl-5-oxopiperazin-1-yl)carbonyl]-4-fluorobenzyl}-4-methyl-6-oxo-5-(trifluoromethyl)-1,6-dihydropyridazin-1-ium trifluoroacetate] | – | < 50 nM |
| – | > 8.30 | CCc1cc(Cc2ccc(F)c(C(=O)N3CCN(C4CCc5ccccc5C4)C(=O)C3)c2)n[nH]c1=O (stereo not drawn) [Example 148, 4-Ethyl-6-(4-fluoro-3-{[3-oxo-4-(1,2,3,4-tetrahydronaphthalen-2-yl)piperazin-1-yl]carbonyl}benzyl)pyridazin-3(2H)-one] | – | 50 to 500 nM |
| – | > 8.30 | Cc1c(Cc2ccc(F)c(C(=O)N3CCN(C4CCC(F)C4)C(=O)C3)c2)n[nH]c(=O)c1C (stereo not drawn) [Example 150, 6-(4-Fluoro-3-{[4-(3-fluorocyclopentyl)-3-oxopiperazin-1-yl]carbonyl}benzyl)-4,5-dimethylpyridazin-3(2H)-one] | – | 50 to 500 nM |
| – | 7.60 to 8.30 | C[C@@H]1CN(C(=O)c2cc(Cc3cc(C(F)(F)F)c(=O)[nH]n3)ccc2F)CC(=O)N1C1CCCC1 [Example 151, 6-(3-{[(3R)-4-cyclopentyl-3-methyl-5-oxopiperazin-1-yl]carbonyl}-4-fluorobenzyl)-4-(trifluoromethyl)pyridazin-3(2H)-one] | – | < 50 nM |
| – | 7.60 to 8.30 | C[C@H]1CN(C(=O)c2cc(Cc3cc(C(F)(F)F)c(=O)[nH]n3)ccc2F)CC(=O)N1C1CCCC1 [Example 152, 6-(3-{[(3S)-4-cyclopentyl-3-methyl-5-oxopiperazin-1-yl]carbonyl}-4-fluorobenzyl)-4-(trifluoromethyl)pyridazin-3(2H)-one] | – | < 5000 nM |
| – | 7.60 to 8.30 | COCCN1CCN(C(=O)c2cc(Cc3n[nH]c(=O)c(C)c3C)ccc2F)CC1=O [Example 170, 6-(4-Fluoro-3-{[4-(2-methoxyethyl)-3-oxopiperazin-1-yl]carbonyl}benzyl)-4,5-dimethylpyridazin-3(2H)-one] | – | < 5000 nM |
| – | > 8.30 | CCOCCN1CCN(C(=O)c2cc(Cc3n[nH]c(=O)c(C)c3C)ccc2F)CC1=O [Example 171, 6-(3-{[4-(2-Ethoxyethyl)-3-oxopiperazin-1-yl]carbonyl}-4-fluorobenzyl)-4,5-dimethylpyridazin-3(2H)-one] | – | < 5000 nM |
| – | 7.60 to 8.30 | Cc1c(Cc2ccc(F)c(C(=O)N3CCN(CCOC(C)C)C(=O)C3)c2)n[nH]c(=O)c1C [Example 172, 6-(4-Fluoro-3-{[4-(2-isopropoxyethyl)-3-oxopiperazin-1-yl]carbonyl}benzyl)-4,5-dimethylpyridazin-3(2H)-one] | – | < 5000 nM |
| – | 7.60 to 8.30 | Cc1c(Cc2ccc(F)c(C(=O)N3CC(=O)N(C4CCC4)[C@@H](C)C3)c2)n[nH]c(=O)c1C [Example 176, 6-(3-{[(3S)-4-Cyclobutyl-3-methyl-5-oxopiperazin-1-yl]carbonyl}-4-fluorobenzyl)-4,5-dimethylpyridazin-3(2H)-one] | – | < 5000 nM |
| – | 7.60 to 8.30 | CC[C@H]1CN(C(=O)c2cc(Cc3n[nH]c(=O)c(C)c3C)ccc2F)CC(=O)N1C1CCC1 [Example 181, 6-(3-{[(3S)-4-Cyclobutyl-3-ethyl-5-oxopiperazin-1-yl]carbonyl}-4-fluorobenzyl)-4,5-dimethylpyridazin-3(2H)-one] | – | < 5000 nM |
| – | 6.82 to 7.60 | Cc1c(Cc2ccc(F)c(C(=O)N3CC(=O)N(C4CCCC4)C(CC(C)C)C3)c2)n[nH]c(=O)c1C (stereo not drawn) [Example 185, 6-{3-[(4-Cyclopentyl-3-isobutyl-5-oxopiperazin-1-yl)carbonyl]-4-fluorobenzyl}-4,5-dimethylpyridazin-3(2H)-one] | – | < 5000 nM |
| – | 7.60 to 8.30 | Cc1c(Cc2ccc(F)c(C(=O)N3CC(=O)N(C4CCCC4)[C@H](C(C)C)C3)c2)n[nH]c(=O)c1C [Example 207, 6-(3-{[(3R)-4-Cyclopentyl-3-isopropyl-5-oxopiperazin-1-yl]carbonyl}-4-fluorobenzyl)-4,5-dimethylpyridazin-3(2H)-one] | – | < 5000 nM |

Continued, compound first:

| SMILES | pIC50 (PARP-1 [2]) | pIC50 (PARP-1 [3]) | inhibition at 5 µM [1] | CC50 [1] |
| --- | --- | --- | --- | --- |
| Cc1c(Cc2ccc(F)c(C(=O)N3CCN(c4ccc(F)cc4)CC3)c2)n[nH]c(=O)c1C | 7.70 | – | 52% | – |
| Cc1c(Cc2ccc(F)c(C(=O)N3CC=C(c4ccc(F)cc4)CC3)c2)n[nH]c(=O)c1C | 7.70 | – | 45% | – |
| Cc1c(Cc2ccc(F)c(C(=O)N3CC(=O)N4CCOCC4C3)c2)n[nH]c(=O)c1C(F)(F)F (stereo not drawn) [Example 136, 3-{4-Fluoro-3-[(6-oxohexahydropyrazino[2,1-c][1,4]oxazin-8(1H)-yl)carbonyl]benzyl}-4-methyl-6-oxo-5-(trifluoromethyl)-1,6-dihydropyridazin-1-ium trifluoroacetate] | – | > 8.30 | – | 50 to 500 nM |
| CCN1C(=O)CN(C(=O)c2cc(Cc3n[nH]c(=O)c(C)c3C)ccc2F)CC1C (stereo not drawn) [Example 137, 6-{3-[(4-ethyl-3-methyl-5-oxopiperazin-1-yl)carbonyl]-4-fluorobenzyl}-4,5-dimethyl-3-oxo-2,3-dihydropyridazin-1-ium trifluoroacetate] | – | 7.60 to 8.30 | – | 50 to 500 nM |
| COc1ccc(CN2C(=O)CN(C(=O)c3cc(Cc4n[nH]c(=O)c(C)c4C)ccc3F)CC2C)cc1 (stereo not drawn) [Example 138, 6-(4-fluoro-3-{[4-(4-methoxybenzyl)-3-methyl-5-oxopiperazin-1-yl]carbonyl}benzyl)-4,5-dimethyl-3-oxo-2,3-dihydropyridazin-1-ium trifluoroacetate] | – | 7.60 to 8.30 | – | 50 to 500 nM |
| Cc1c(Cc2ccc(F)c(C(=O)N3CC(=O)N(CC(F)(F)F)C(C)C3)c2)n[nH]c(=O)c1C (stereo not drawn) [Example 139, 6-(4-fluoro-3-{[3-methyl-5-oxo-4-(2,2,2-trifluoroethyl)piperazin-1-yl]carbonyl}benzyl)-4,5-dimethyl-3-oxo-2,3-dihydropyridazin-1-ium trifluoroacetate] | – | 7.60 to 8.30 | – | 50 to 500 nM |
| Cc1c(Cc2ccc(F)c(C(=O)N3CC(=O)N(C4C[C@H]5CC[C@@H]4C5)C(C)C3)c2)n[nH]c(=O)c1C (stereo partly drawn) [Example 140, 6-[3-({4-[(1R,4S)-bicyclo[2.2.1]hept-2-yl]-3-methyl-5-oxopiperazin-1-yl}carbonyl)-4-fluorobenzyl]-4,5-dimethyl-3-oxo-2,3-dihydropyridazin-1-ium trifluoroacetate] | – | 7.60 to 8.30 | – | < 50 nM |
| Cc1c(Cc2ccc(F)c(C(=O)N3CCN(C4CCCOC4)C(=O)C3)c2)n[nH]c(=O)c1C(F)(F)F (stereo not drawn) [Example 141, 3-(4-Fluoro-3-{[3-oxo-4-(tetrahydro-2H-pyran-3-yl)piperazin-1-yl]carbonyl}benzyl)-4-methyl-6-oxo-5-(trifluoromethyl)-1,6-dihydropyridazin-1-ium trifluoroacetate] | – | 7.60 to 8.30 | – | < 50 nM |
| Cc1c(Cc2ccc(F)c(C(=O)N3CCN(C4CCOC4)C(=O)C3)c2)n[nH]c(=O)c1C(F)(F)F (stereo not drawn) [Example 142, 3-(4-Fluoro-3-{[3-oxo-4-(tetrahydrofuran-3-yl)piperazin-1-yl]carbonyl}benzyl)-4-methyl-6-oxo-5-(trifluoromethyl)-1,6-dihydropyridazin-1-ium trifluoroacetate] | – | > 8.30 | – | < 50 nM |
| CCc1cc(Cc2ccc(F)c(C(=O)N3CCN([C@H]4CCCOC4)C(=O)C3)c2)n[nH]c1=O [Example 144, 4-ethyl-6-[4-fluoro-3-({3-oxo-4-[(3S)-tetrahydro-2H-pyran-3-yl]piperazin-1-yl}carbonyl)benzyl]pyridazin-3(2H)-one] | – | > 8.30 | – | < 5000 nM |
| CCc1cc(Cc2ccc(F)c(C(=O)N3CCN([C@@H]4CCCOC4)C(=O)C3)c2)n[nH]c1=O [Example 145, 4-ethyl-6-[4-fluoro-3-({3-oxo-4-[(3R)-tetrahydro-2H-pyran-3-yl]piperazin-1-yl}carbonyl)benzyl]pyridazin-3(2H)-one] | – | 7.60 to 8.30 | – | 50 to 500 nM |
